Reference: patent US20240262814A1, “MODULATORS OF TREX1” (Constellation Pharmaceuticals, Inc., priority 2021, published 2024)
pIC50: −log10 of the molar value.

Columns and labels:
[1] = molecular target: T1, mouse TREX1 (Mus musculus, UniProt Q91XB0); assay: mTREX1 Biochemical Assay (fluorescence, dsDNA substrate degradation); conditions: full length mouse TREX1, 4 h pre-incubation, 18 h reaction at 25° C.
T1 construct: N-terminally His-Tev tagged full length mouse TREX1; made in house; host or cells: E. coli
T1 sequence (Q91XB0 1-314): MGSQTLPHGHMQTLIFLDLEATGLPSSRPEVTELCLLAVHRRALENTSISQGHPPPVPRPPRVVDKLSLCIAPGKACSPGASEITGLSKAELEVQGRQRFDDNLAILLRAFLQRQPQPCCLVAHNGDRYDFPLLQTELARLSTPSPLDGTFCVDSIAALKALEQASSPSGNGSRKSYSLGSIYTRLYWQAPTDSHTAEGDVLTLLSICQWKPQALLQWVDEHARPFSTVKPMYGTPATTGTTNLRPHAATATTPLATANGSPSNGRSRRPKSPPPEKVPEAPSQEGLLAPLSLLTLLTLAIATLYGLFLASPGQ
In short: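 Full-length His-Tev mouse TREX1 (E. coli) was preincubated with compound 4 h at 25 °C, then run 18 h at 25 °C. Finals were 6 pM enzyme, 60 nM TEX615/quencher dsDNA, 1% DMSO, pH 7.4 Tris with 5 mM MgCl2. After EDTA quench, fluorescence was read at 615 nm; IC50 by four-parameter fit against EDTA and no-inhibitor controls.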

[2] = system: hTREX1 HCT116; assay: hTREX1 HCT116 Cell Assay (Lucia luciferase reporter, Type I interferon induction); type: cell-based; conditions: Homo sapiens, HCT-116, HCT116 dual cells, 4h compound, then pBR322/BstNI DNA transfection, 48h
Excerpt: HCT116 dual cells (Invivogen, San Diego, CA, USA) are derived from the human HCT116 colorectal carcinoma cell line. Cells have been selected for the stable integration of SEAP and Luciferase reporter genes, which expression is under the control of 5 tandem response elements for NF-KB/AP1 and STAT1/STAT2, respectively. The cell line was used to monitor Type I interferon induction and subsequent signaling by measuring the activity of the Lucia luciferase secreted in the culture medium.
HCT116 cells were plated in 96-well plate(s) at 40,000 cells/well in 100 uL DMEM supplemented with 10% FBS and 25 mM Hepes (pH 7.2-7.5). After overnight settling, cells were treated with TREX1i for 4h (maximum DMSO fraction was 0.1%) before 1 ug/mL pBR322/BstNI restriction digest (New England Biolabs, Ipswich, MA, USA) was transfected with Lipofectamine LTX (ThermoFisher, Grand Island, NY, USA), according to product manual recommendations. Briefly, Lipofectamine LTX (0.35 uL/well) was diluted in OptiMEM (5 uL/well). pBR322/BstNI (100 ng/well) was diluted in OptiMEM (5 uL/well) before Plus reagent (0.1 uL/100 ng DNA) was added. After 5 min incubation at room temperature, the DNA mixture was mixed dropwise with the diluted Lipofectamine LTX. After an additional 10 min incubation, the transfection mix (10 uL/well) was added to the cells. Cells were maintained at 37 C for 48h before monitoring the Lucia Luciferase activity from the cell culture medium.

SMILES: CC(c1nc(C(=O)Nc2cnoc2)c(O)c(=O)n1C)C(c1ccccc1)c1cc(Cl)ccc1C#N (single isomer, unassigned) [Example 8 Isomer 2]
- pIC50 [1]: 8.00 to 9.00

SMILES: C[C@H](c1nc(C(=O)Nc2cnoc2)c(O)c(=O)n1C)[C@H](c1ccccc1)c1ccccc1C(F)(F)F (single isomer, unassigned) [Example 14 Isomer 2, 5-Hydroxy-N-(isoxazol-4-yl)-1-methyl-6-oxo-2-(1-phenyl-1-(2-(trifluoromethyl)phenyl)propan-2-yl)-1,6-dihydropyrimidine-4-carboxamide]
- pIC50 [2]: < 7.00
- pIC50 [1]: < 8.00

SMILES: CC(c1nc(C(=O)Nc2cnoc2)c(O)c(=O)n1C)C(c1ccccc1)c1ccc(Cl)cc1C#N (single isomer, unassigned) [Example 9 Isomer 4]
- pIC50 [1]: > 9.00

SMILES: Cn1c([C@@H](C(c2ccccc2C#N)c2ccccc2C#N)C(F)(F)F)nc(C(=O)Nc2cnoc2)c(O)c1=O (single isomer, unassigned) [Example 21 Isomer 1, 2-(3,3-bis(2-cyanophenyl)-1,1,1-trifluoropropan-2-yl)-5-hydroxy-N-(isoxazol-4-yl)-1-methyl-6-oxo-1,6-dihydropyrimidine-4-carboxamide]
- pIC50 [2]: > 8.00
- pIC50 [1]: 8.00 to 9.00

SMILES: CC(c1nc(C(=O)Nc2cnoc2)c(O)c(=O)n1C)C(c1ccccc1)c1ccccc1 (single isomer, unassigned) [Example 1 Isomer 1, 2-(1,1-diphenylpropan-2-yl)-5-hydroxy-N-(isoxazol-4-yl)-1-methyl-6-oxo-1,6-dihydro pyrimidine-4-carboxamide]
- pIC50 [2]: < 7.00
- pIC50 [1]: < 8.00

SMILES: C[C@H](c1nc(C(=O)Nc2cnoc2)c(O)c(=O)n1C)[C@H](c1ccccc1)c1ccccc1Cl (single isomer, unassigned) [Example 2 Isomer 3, 2-(1-(2-chlorophenyl)-1-phenylpropan-2-yl)-5-hydroxy-N-(isoxazol-4-yl)-1-methyl-6-oxo-1,6-dihydropyrimidine-4-carboxamide]
- pIC50 [1]: 8.00 to 9.00

SMILES: CC(c1nc(C(=O)Nc2cnoc2)c(O)c(=O)n1C)C(c1ccccc1)c1ccccc1 (single isomer, unassigned) [Example 1 Isomer 2, 2-(1,1-diphenylpropan-2-yl)-5-hydroxy-N-(isoxazol-4-yl)-1-methyl-6-oxo-1,6-dihydro pyrimidine-4-carboxamide]
- pIC50 [1]: < 8.00

SMILES: Cn1c([C@H](C(c2ccccc2)c2ccccc2)C(F)(F)F)nc(C(=O)Nc2cnoc2)c(O)c1=O (single isomer, unassigned) [Example 20 Isomer 1, 5-Hydroxy-N-(isoxazol-4-yl)-1-methyl-6-oxo-2-(1,1,1-trifluoro-3,3-diphenylpropan-2-yl)-1,6-dihydropyrimidine-4-carboxamide]
- pIC50 [2]: < 7.00
- pIC50 [1]: < 8.00

SMILES: CC(c1nc(C(=O)Nc2cnoc2)c(O)c(=O)n1C)C(c1ccccc1)c1cc(C(=O)N(C)C)ccc1C#N (single isomer, unassigned) [Example 17 Isomer 3]
- pIC50 [2]: 7.00 to 8.00
- pIC50 [1]: 8.00 to 9.00

SMILES: CC(c1nc(C(=O)Nc2cnoc2)c(O)c(=O)n1C)C(c1ccccc1)c1ccccc1C#N (single isomer, unassigned) [Example 3 Isomer 4]
- pIC50 [1]: 8.00 to 9.00

SMILES: CC(c1nc(C(=O)Nc2cnoc2)c(O)c(=O)n1C)C(c1ccccc1C#N)c1ccccc1C#N (single isomer, unassigned) [Example 4 Isomer 2]
- pIC50 [2]: > 8.00
- pIC50 [1]: > 9.00

SMILES: CC(c1nc(C(=O)Nc2cnoc2)c(O)c(=O)n1C)C(c1ccccc1)c1cc(F)ccc1C#N (single isomer, unassigned) [Example 6 Isomer 4]
- pIC50 [1]: 8.00 to 9.00

SMILES: CC(c1nc(C(=O)Nc2cnoc2)c(O)c(=O)n1C)C(c1ccccc1Cl)c1ccccc1C#N (single isomer, unassigned) [Example 10 Isomer 1]
- pIC50 [1]: > 9.00

SMILES: C[C@H](c1nc(C(=O)Nc2cnoc2)c(O)c(=O)n1C)C(c1ccccc1Cl)c1ccccc1Cl (single isomer, unassigned) [Example 15 Isomer 1, 2-(1,1-bis(2-chlorophenyl)propan-2-yl)-5-hydroxy-N-(isooxazol-4-yl)-1-methyl-6-oxo-1,6-dihydropyrimidine-4-carboxamide]
- pIC50 [2]: 7.00 to 8.00
- pIC50 [1]: > 9.00

SMILES: CC(c1nc(C(=O)Nc2cnoc2)c(O)c(=O)n1C)C(c1cc(F)cc(F)c1)c1ccccc1C#N (single isomer, unassigned) [Example 11 Isomer 3]
- pIC50 [1]: > 9.00
